{"source": "paper PMC7238120", "about": "“Strong and Selective Inhibitory Effects of the Biflavonoid Selamariscina A against CYP2C8 and CYP2C9 Enzyme Activities in Human Liver Microsomes” (Pharmaceutics, 2020)", "origin": "cited, not measured here", "key": {"CYP2C8": {"target": "T1, CYP2C8 (Homo sapiens, UniProt P10632)", "T1 sequence (P10632 1-490)": "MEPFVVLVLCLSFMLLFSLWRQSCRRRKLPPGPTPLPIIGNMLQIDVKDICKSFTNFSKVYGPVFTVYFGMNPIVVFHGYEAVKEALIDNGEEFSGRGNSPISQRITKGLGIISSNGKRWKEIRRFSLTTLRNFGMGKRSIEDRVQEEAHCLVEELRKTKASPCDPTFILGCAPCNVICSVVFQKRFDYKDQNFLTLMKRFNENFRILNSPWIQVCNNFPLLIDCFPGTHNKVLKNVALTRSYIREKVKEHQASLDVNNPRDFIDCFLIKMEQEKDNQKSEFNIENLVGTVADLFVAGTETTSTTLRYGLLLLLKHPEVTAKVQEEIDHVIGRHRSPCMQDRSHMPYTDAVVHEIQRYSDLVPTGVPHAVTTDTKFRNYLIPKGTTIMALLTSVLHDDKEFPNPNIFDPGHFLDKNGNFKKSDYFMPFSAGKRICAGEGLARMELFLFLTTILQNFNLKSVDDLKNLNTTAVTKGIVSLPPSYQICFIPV", "conditions": "cited from earlier work"}, "CYP1A2": {"target": "T2, CYP1A2 (Homo sapiens, UniProt P05177)", "T2 construct": "incubation mixtures containing pooled human liver microsomes (HLMs, XTreme 200, XenoTech); tissue XenoTech XTreme 200; host or cells: pooled human liver microsomes", "T2 sequence (P05177 1-516)": "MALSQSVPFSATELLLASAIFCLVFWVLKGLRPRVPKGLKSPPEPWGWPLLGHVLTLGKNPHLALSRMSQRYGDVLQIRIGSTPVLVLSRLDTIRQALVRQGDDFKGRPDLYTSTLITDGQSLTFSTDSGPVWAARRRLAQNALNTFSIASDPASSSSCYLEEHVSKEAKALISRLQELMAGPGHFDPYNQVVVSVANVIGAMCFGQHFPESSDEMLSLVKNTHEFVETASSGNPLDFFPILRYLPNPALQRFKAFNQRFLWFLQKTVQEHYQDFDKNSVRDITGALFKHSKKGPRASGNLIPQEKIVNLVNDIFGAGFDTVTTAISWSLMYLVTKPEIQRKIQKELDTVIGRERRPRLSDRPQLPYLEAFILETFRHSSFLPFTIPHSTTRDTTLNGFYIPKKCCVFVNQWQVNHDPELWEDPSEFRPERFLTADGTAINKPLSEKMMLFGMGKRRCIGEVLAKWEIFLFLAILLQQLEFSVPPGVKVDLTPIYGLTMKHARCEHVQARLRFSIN", "parameters": "method as in PMID 7483658", "conditions": "human liver microsomes; read-out: Ki, CYP1A2, competitive inhibition; cited from earlier work"}, "UGT1A1": {"target": "T3, UGT1A1 (Homo sapiens, UniProt P22309)", "T3 sequence (P22309 26-533)": "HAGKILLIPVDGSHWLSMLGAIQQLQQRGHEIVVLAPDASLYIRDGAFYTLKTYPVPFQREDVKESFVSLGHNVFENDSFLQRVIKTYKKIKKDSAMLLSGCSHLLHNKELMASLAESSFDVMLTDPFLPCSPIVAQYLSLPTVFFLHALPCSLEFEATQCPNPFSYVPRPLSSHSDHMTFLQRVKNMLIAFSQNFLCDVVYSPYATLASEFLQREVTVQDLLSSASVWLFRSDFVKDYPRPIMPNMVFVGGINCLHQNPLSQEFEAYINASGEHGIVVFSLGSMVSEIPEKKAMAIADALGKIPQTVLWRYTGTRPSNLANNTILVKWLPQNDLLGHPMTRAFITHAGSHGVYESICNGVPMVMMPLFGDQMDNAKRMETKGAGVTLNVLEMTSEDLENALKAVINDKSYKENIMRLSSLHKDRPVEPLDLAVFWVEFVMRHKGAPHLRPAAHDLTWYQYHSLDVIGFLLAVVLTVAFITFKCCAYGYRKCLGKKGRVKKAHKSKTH", "parameters": "method as in PMID 12386134", "conditions": "read-out: IC50, UGT1A1-mediated estradiol glucuronidation; cited from earlier work"}, "CYP3A4": {"system": "CYP3A4", "parameters": "method as in PMID 1602384", "conditions": "HLMs; cited from earlier work"}, "CYP2C9": {"target": "CYP2C9 (Homo sapiens, UniProt P11712)", "sequence (P11712 whole entry)": "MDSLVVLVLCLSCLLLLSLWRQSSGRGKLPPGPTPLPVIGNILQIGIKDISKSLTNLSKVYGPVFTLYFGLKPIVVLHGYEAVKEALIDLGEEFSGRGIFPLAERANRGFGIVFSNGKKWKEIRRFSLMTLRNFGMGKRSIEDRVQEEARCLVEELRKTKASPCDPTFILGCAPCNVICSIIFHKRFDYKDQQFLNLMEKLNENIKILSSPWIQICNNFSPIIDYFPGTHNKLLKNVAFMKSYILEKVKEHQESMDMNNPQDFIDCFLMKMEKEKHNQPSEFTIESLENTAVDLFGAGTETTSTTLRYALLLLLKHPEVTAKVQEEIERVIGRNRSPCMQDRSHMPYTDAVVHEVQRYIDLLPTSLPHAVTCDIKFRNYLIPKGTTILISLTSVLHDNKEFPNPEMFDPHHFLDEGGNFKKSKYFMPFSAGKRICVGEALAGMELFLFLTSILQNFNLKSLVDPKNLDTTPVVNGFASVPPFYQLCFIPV", "conditions": "read-out: Ki, CYP2C9, known inhibitor; cited from earlier work"}, "[1]": {"conditions": "read-out: Ki, CYP2C8, known inhibitor"}}, "note": "Read-outs that look alike come from different tables or passages of the source."}
{"smiles": "CCOC(=O)C1=C(C)NC(C)=C(C(=O)OC)C1c1cccc(Cl)c1Cl", "note": "(stereo not shown) [felodipine]", "values": [{"measurement": "IC50", "setting": "CYP2C8; read-out: IC50, CYP2C8, known inhibitor", "value": 1.2, "unit": "µM"}]}
{"smiles": "COc1ccc(-c2cc(=O)c3c(OC)c(OC)c(OC)c(OC)c3o2)cc1", "note": "[tangeretin]", "values": [{"measurement": "Ki", "setting": "CYP1A2", "value": 0.068, "unit": "µM"}, {"measurement": "IC50", "setting": "UGT1A1", "value": 1, "unit": "µM"}]}
{"smiles": "COc1cc(C(=O)NS(=O)(=O)c2ccccc2C)ccc1Cc1cn(C)c2ccc(NC(=O)OC3CCCC3)cc12", "note": "[zafirlukast]", "values": [{"measurement": "Ki", "setting": "CYP2C8; read-out: Ki, CYP2C8, well-known inhibitor", "value": 0.39, "unit": "µM"}]}
{"smiles": "Cc1cn(-c2cc(NC(=O)c3ccc(C)c(Nc4nccc(-c5cccnc5)n4)c3)cc(C(F)(F)F)c2)cn1", "note": "[nilotinib]", "values": [{"measurement": "Ki", "setting": "CYP2C8; [1]", "value": 0.1, "unit": "µM"}]}
{"smiles": "CNC(=O)c1ccccc1Sc1ccc2c(/C=C/c3ccccn3)n[nH]c2c1", "note": "[axitinib]", "values": [{"measurement": "Ki", "setting": "CYP2C8; [1]", "value": 0.17, "unit": "µM"}]}
{"smiles": "O=c1c(O)c(-c2ccc(O)cc2)oc2cc(O)cc(O)c12", "note": "[kaempferol]", "values": [{"measurement": "Concentrations inhibiting metabolism of nifedipine and felodipine by CYP3A4", "setting": "CYP3A4", "value": "> 10", "unit": "µM"}]}
{"smiles": "O=c1c(O)c(-c2ccc(O)c(O)c2)oc2cc(O)cc(O)c12", "note": "[quercetin]", "values": [{"measurement": "Concentrations inhibiting metabolism of nifedipine and felodipine by CYP3A4", "setting": "CYP3A4", "value": "> 10", "unit": "µM"}]}
{"smiles": "CNCCC(Oc1ccc(C(F)(F)F)cc1)c1ccccc1", "note": "(stereo not shown) [fluoxetine]", "values": [{"measurement": "Ki", "setting": "CYP2C9", "value": "19 to 87", "unit": "µM"}]}
{"smiles": "COCCCC/C(=N\\OCCN)c1ccc(C(F)(F)F)cc1", "note": "[fluvoxamine]", "values": [{"measurement": "Ki", "setting": "CYP2C9", "value": "0.63 to 16", "unit": "µM"}]}
